From patent publication US20220370553A1, “PREBIOTIC-INDUCED ANTI-TUMOR IMMUNITY” (Sanford Burnham Prebys Medical Discovery Institute, priority 2019, published 2022)

Tests used:
OT-I CD8+ T cells = assay: In vivo OT-I T cell assay with B16-OVA melanoma cells; parameters: species or system C57BL/6 mice; details: mucin-treated vs control mice
Description: Right dot plots show gating of CD45.1+CD8+ cells (n=6). FIG. 4B Quantification of CD45.1+OT-I CD8+ T cell number in the tumor-draining lymph nodes (TdLN) and non-draining lymph nodes (ndLN) of WT C57BL/6 mice CD45.2+ mice that were injected with B16-OVA melanoma cells (n=10). Graphs show the mean s.e.m. *P<0.05, by two-tailed t-test or Mann-Whitney U test.
In vivo OT-I T cell proliferation assay. […] After 24 h, the mice were injected s.c. with 1×10^6 B16-OVA melanoma cells and the mice were left for 7 days. The spleen, tumor-draining lymph nodes, and non-draining lymph nodes were harvested and analyzed by flow cytometry. The proliferation of OT-1 CD8+ T cells was assessed by analysis of CFSE dilution within the population by gating on CD45.1+CD8+ T cells.
To assess the activation and homing of tumor-specific T cells in prebiotic-treated mice, an adoptive transfer model was used with OVA-specific OT-I transgenic T cells. OVA-specific OT-I CD8+, CD45.1+ T cells were transferred into untreated or mucin-treated WT mice. Mice were injected with OVA-expressing B16F10 tumor cells, and the frequency of OVA-specific OT-I T cells was monitoring in tumor draining and non-tumor-draining lymph nodes. OT-I CD8+ T cells were more abundant in the tumor-draining lymph nodes of mucin-treated mice, compared with control mice (FIG. 4A-B).

[1] = tested on: MC-38 mouse colorectal cancer cells; assay: Growth of MC-38 colorectal cancer tumors in prebiotic-fed mice; format: in vivo, C57BL/6 mice; details: 3% mucin in drinking water or 15% inulin diet from two weeks prior to inoculation
Source text: MC-38 mouse colorectal cancer cells (1×10^6) were inoculated, and diets were continued after inoculation.

gut microbiota = format: in vivo, C57BL/6 mice; details: in the absence of MEKi
Description: Bacterial DNA extraction and 16S library preparation. […] Mouse fecal pellets were frozen on dry ice, and stored at −80° C. Bacterial DNA was extracted using the QIAmp Fast DNA Stool Mini Kit (Qiagen). To ensure efficient cell lysis, a 5-min bead-beating step using a Mini-Beadbeater-16 was included (Biospec Products, OK, USA). Library preparation for the Illumina MiSeq platform was performed by amplification of the V3-V4 region of the bacterial 16S ribosomal DNA gene using
C. Adapter and barcode sequences for dual indices were used as described by Illumina. PCR clean up steps were performed with QIAquick 96-PCR Clean up kit (Qiagen, Germany), and library quantification was performed using a KAPA Library Quantification Kit for Illumina platforms (KAPA Biosystems, MA, USA). An Experion Automated Gel Electrophoresis System (Bio-Rad, CA, USA) was used to measure the DNA concentration and purity of the pooled libraries. The 16S libraries were sequenced at Novagene (Beijing, China) and the SBP sequencing Core.
16S sequencing data processing. The original FASTQ files from Illumina 250 basepair paired-end sequencing of the samples were processed using a novel 16S amplicon sequencing pipeline HiMap (http://github.com/taolonglab/himap; BioRxiv 565572). The output of HiMap is Operational Strain Unit (OSU) which contains one or more bacterial strains that best match the 16S sequence and cannot be further distinguished. The percentage similarity between the 16S sequence and the aligned region of 16S rRNA genes of the strains in the OSU is indicated. OSUs mapped to the same strains are grouped together (adding read counts) if percentage similarities are within 3%. Read counts are converted into relative abundance as described in HiMap. Log 10-transformed relative abundances were used for comparisons between samples under different experimental conditions.

SW1 tumor cells = assay: SW1 tumor growth in germ free mice colonized with minimal microbiota (ASF); format: in vivo, C3H/HeN mice; details: two weeks of mucin, 24 days
Source text: Tumor size was monitored over the next 24 days (n=15).
Animals and tumor models. All experimental animal procedures were approved by the Institutional Animal Care and Use Committee of Sanford Burnham Prebys Medical Discovery Institute (SBP) and complied with all relevant ethical regulations for animal testing and research. C57BL/6 mice were obtained from Sanford Burnham Prebys Medical Discovery Institute. OT-I mice were bred at SBP to CD45.1 mice (B6.SJLB6.SJL-Ptprc^a Pepc^b/BoyJ) that were obtained from Jackson Laboratories. C3H/HeOuJ mice were purchased from Jackson laboratories. Male 6-8-week-old mice were used for all experiments. […] Briefly, fresh feces were collected and analyzed by bacterial 16S rRNA gene-specific PCR (30 cycles, universal bacteria primers 8F and 1391R) in combination with aerobic and anaerobic culture of feces in Brain Heart Infusion, Wilkins-Chalgren and Yeast Mold broths, and on Tryptic Soy Agar plates (all media from Difco™ Becton Dickinson) at 37° C. for 7 days. […] Briefly, genomic DNA was extracted from fecal samples and ASF bacteria were quantified by qPCR with species-specific primers. […] Tumor size was measured twice a week for calculation of tumor volume. […]
In order to test the requirement for gut microbiota in prebiotic-induced tumor control, experiments were conducted using mice with a defined, minimal microbiota. […] Tumor size was monitored over the next 24 days.

## mucin
OT-I CD8+ T cells
  OT-I CD8+ T cells in tumor-draining lymph nodes: more abundant
[1]
  growth of colon cancer MC-38 tumors: not
Gut microbiota
  phylotype group related to Parasutterella excrementihominis: not observed
  taxa increased in relative abundance: primarily increased the relative abundance of taxa mapped in or near Clostridium cluster XIVa
SW1 tumor cells
  SW1 tumor growth: failed to attenuate tumor growth
